{"source": "patent US10315146B2", "about": "“Filter medium for deactivating allergens” (Carl Freudenberg KG, priority 2015, dated 2019)", "key": {"[1]": {"test_system": "Antigen Bet v1 from pollen", "test": "ELISA test of allergen-deactivating efficiency of the filter medium (birch pollen antigen)", "assay_type": "biochemical", "conditions": "summary of Table 1; acid on filter medium in dry state", "protocol": "A carrier non-woven fabric of polyester spunbonded non-woven (weight per unit area 125 g/m^2) is finished in an allergen-deactivating manner with a mixture of lauric acid and citric acid. The allergen-deactivating doping of the carrier non-woven is carried out by applying a mixture of the active ingredients in aqueous solution to the carrier non-woven and subsequently drying the now finished non-woven fabric to thereby obtain a sample for analysis.\nThe size of the sample used in the test is 10 mm×10 mm.\nAllergen sources used and antigens to be tested: • a) Allergen house dust mite: Antigen Der p1 from excrement • b) Allergen birch pollen: Antigen Bet v1 from pollen\nAllergen sources from Allergon AB, Ängelholm, Sweden were used. […]"}, "[2]": {"target": "T1, Antigen Der p1 from excrement (Dermatophagoides pteronyssinus, UniProt P08176)", "T1 construct": "tissue Allergon AB, Ängelholm, Sweden; host or cells: house dust mite excrement", "T1 sequence (P08176 99-320)": "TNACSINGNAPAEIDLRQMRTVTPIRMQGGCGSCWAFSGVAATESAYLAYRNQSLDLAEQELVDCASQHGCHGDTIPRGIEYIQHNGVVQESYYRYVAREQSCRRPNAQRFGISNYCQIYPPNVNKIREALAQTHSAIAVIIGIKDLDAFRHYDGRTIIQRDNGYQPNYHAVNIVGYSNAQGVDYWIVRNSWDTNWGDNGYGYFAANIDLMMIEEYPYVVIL", "test": "ELISA test of allergen-deactivating efficiency of the filter medium (house dust mite antigen)", "assay_type": "biochemical", "conditions": "text summary of Table 4; compared with the acids used according to the invention", "from_the_text": "In the examples, ELISA (enzyme-linked immunosorbent assay) is used as a method for measuring the deactivation abilities of different active ingredient compositions in respect of particular allergens.\nThe ELISA method can measure allergen concentrations by assessing color changes due to antigen-antibody reactions.\nA carrier non-woven fabric of polyester spunbonded non-woven (weight per unit area 125 g/m^2) is finished in an allergen-deactivating manner with a mixture of lauric acid and citric acid. […]\nThe absorption of the microplate is established according to the specifications of the ELISA kit manufacturer using a microplate reading device at a wavelength of 405 nm and thus the allergen concentration (antigen content) of each sample is determined.\nTo determine the allergen-deactivating efficiency, each antigen concentration of the sample reaction solution is determined according to the specifications of the ELISA kit manufacturer using a microplate reading device at a wavelength of 405 nm.\nHere, the starting concentration and the measured allergen concentration of the sample correspond to an antigen-specific concentration in ng/ml. […]"}}}
{"smiles": "O=C(O)CC(O)(CC(=O)O)C(=O)O", "note": "[citric acid]", "values": [{"measurement": "allergen-eliminating effect", "setting": "[1]", "result": "high allergen-eliminating effect"}]}
{"smiles": "O=C(O)CC(O)C(=O)O", "note": "(stereo not drawn) [malic acid]", "values": [{"measurement": "allergen-eliminating effect", "setting": "[1]", "result": "high allergen-eliminating effect"}]}
{"smiles": "O=C([O-])[O-].[K+].[K+]", "note": "[potassium carbonate]", "values": [{"measurement": "immunological effect", "setting": "[2]", "result": "significantly lower than that of the acids used according to the invention"}]}
